Source: US10669283B2, “Compound and pharmacologically acceptable salt thereof” (MEIJI SEIKA PHARMA CO., LTD., priority 2016, dated 2020)

The molecules below were run on PDE4 (assay: PDE4 inhibition, scintillation proximity assay (SPA)). Settings: scintillation proximity assay (SPA); evaluated as classes A, B, C; read-out: PDE4 Inhibitory Activity (concentration for the inhibition rate of 50%).
Assay type: biochemical
Outline: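 Scintillation proximity read-out: [2,8-3H]-cAMP hydrolysis by PDE4 ran 120 min at room temperature in Tris-HCl pH 7.4 buffer with 8.3 mM MgCl2, 1.7 mM EGTA and 3 mg/mL BSA. Bead-bound product (YSi-SPA with ZnSO4, 15 min) counted; blank lacks enzyme, control has DMSO only.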

| Compound | IC50 [nM] |
| --- | --- |
| CC(O)(c1ccc(-c2nccs2)c2oc(N3CC4CC(C3)N4)nc12)C(F)(F)F (centres unmarked) [Example 234, 2-(2-(3,6-Diazabicyclo[3.1.1]heptan-3-yl)-7-(thiazol-2-yl)benzo[d]oxazol-4-yl)-1,1,1-trifluoropropan-2-ol] | < 100 |
| CC(O)COC(c1cc(-c2nccs2)c2oc(N3CC4CCC(C3)N4)nc2c1)C(F)(F)F (centres unmarked) [Example 155, 1-(1-(2-(3,8-Diazabicyclo[3.2.1]octan-3-yl)-7-(thiazol-2-yl)benzo[d]oxazol-5-yl)-2,2,2-trifluoroethoxy)propan-2-ol] | < 100 |
| c1csc(-c2ccc(OC3CCC3)c3nc(N4CC5CCC(C4)N5)oc23)n1 [Example 81, 2-(3,8-Diazabicyclo[3.2.1]octan-3-yl)-4-cyclobutoxy-7-(thiazol-2-yl)benzo[d]oxazole] | < 100 |
| FC(F)(F)COc1cc(-c2nccs2)c2oc(N3CC4CC(C3)N4)nc2c1 [Example 67, 2-(3,6-Diazabicyclo[3.1.1]heptan-3-yl)-7-(thiazol-2-yl)-5-(2,2,2-trifluoroethoxy)benzo[d]oxazole] | < 100 |
| CC(C)(O)c1cc(-c2nccs2)c2oc(N3CC4CCC(C3)N4)nc2c1OC(F)(F)F [Example 195, 2-(2-(3,8-Diazabicyclo[3.2.1]octan-3-yl)-7-(thiazol-2-yl)-4-(trifluoromethoxy)benzo[d]oxazol-5-yl)propan-2-ol] | < 100 |
| CC(C)c1cc(-c2nccs2)c2oc(N3CC4COCC(C3)N4)nc2c1 [Example 23, 7-(5-Isopropyl-7-(thiazol-2-yl)benzo[d]oxazol-2-yl)-3-oxa-7,9-diazabicyclo[3.3.1]nonane] | 100 to 1000 |
| C[S+]([O-])c1cc(-c2nccs2)c2oc(N3CC4CCCC(C3)N4)nc2c1 (centres unmarked) [Example 44, 2-(3,9-Diazabicyclo[3.3.1]nonan-3-yl)-5-(methylsulfinyl)-7-(thiazol-2-yl)benzo[d]oxazole] | < 100 |
| COc1cc(-c2nccs2)c2oc(N3CC4CCCC(C3)N4)nc2c1 [Example 62, 2-(3,9-Diazabicyclo[3.3.1]nonan-3-yl)-5-methoxy-7-(thiazol-2-yl)benzo[d]oxazole] | < 100 |
| OC(c1cc(-c2nccs2)c2oc(N3CC4CCC(C3)N4)nc2c1OC(F)(F)F)C(F)F (centres unmarked) [Example 206, 1-(2-(3,8-Diazabicyclo[3.2.1]octan-3-yl)-7-(thiazol-2-yl)-4-(trifluoromethoxy)benzo[d]oxazol-5-yl)-2,2-difluoroethan-1-ol] | < 100 |
| COC(C)c1cc(-c2nccs2)c2oc(N3CC4CC(C3)N4)nc2c1C(F)(F)F (centres unmarked) [Example 185, 2-(3,6-Diazabicyclo[3.1.1]heptan-3-yl)-5-(1-methoxyethyl)-7-(thiazol-2-yl)-4-(trifluoromethyl)benzo[d]oxazole] | < 100 |
| CCOC(=O)c1cc(-c2nccs2)c2oc(N3CC4CCCC(C3)N4)nc2c1C(F)(F)F [Example 164, Ethyl 2-(3,9-diazabicyclo[3.3.1]nonan-3-yl)-7-(thiazol-2-yl)-4-(trifluoromethyl)benzo[d]oxazole-5-carboxylate] | < 100 |
| CC(O)c1cc(-c2nccs2)c2oc(N3CC4CC(C3)N4)nc2c1OC(F)(F)F (centres unmarked) [Example 273, 1-(2-(3,6-Diazabicyclo[3.1.1]heptan-3-yl)-7-(thiazol-2-yl)-4-(trifluoromethoxy)benzo[d]oxazol-5-yl)ethan-1-ol] | < 100 |
| OC(c1cc(-c2nccs2)c2oc(N3CC4CCC(C3)N4)nc2c1)C(F)(F)F (racemic) [Example 137, 1-(2-(3,8-Diazabicyclo[3.2.1]octan-3-yl)-7-(thiazol-2-yl)benzo[d]oxazol-5-yl)-2,2,2-trifluoroethan-1-ol] | < 100 |
| O=C(O)c1cc(-c2nccs2)c2oc(N3CC4CCC(C3)N4)nc2c1OC(F)(F)F [Example 189, 2-(3,8-Diazabicyclo[3.2.1]octan-3-yl)-7-(thiazol-2-yl)-4-(trifluoromethoxy)benzo[d]oxazole-5-carboxylic acid] | 100 to 1000 |
| CNC(=O)c1cc(-c2nccs2)c2oc(N3CC4CCC(C3)N4)nc2c1 [Example 100, 2-(3,8-Diazabicyclo[3.2.1]octan-3-yl)-N-methyl-7-(thiazol-2-yl)benzo[d]oxazole-5-carboxamide] | < 100 |
| COC(C)(C)COC(c1ccc(-c2nccs2)c2oc(N3CC4CC(C3)N4)nc12)C(F)(F)F (centres unmarked) [Example 281, 2-(3,6-Diazabicyclo[3.1.1]heptan-3-yl)-7-(thiazol-2-yl)-4-(2,2,2-trifluoro-1-(2-methoxy-2-methylpropoxy)ethyl)benzo[d]oxazole] | < 100 |
| COc1ccc(-c2nccs2)c2oc(N3CC4CCC(C3)N4)nc12 [Example 75, 2-(3,8-Diazabicyclo[3.2.1]octan-3-yl)-4-methoxy-7-(thiazol-2-yl)benzo[d]oxazole] | < 100 |
| COC(C)(C)c1cc(-c2nccs2)c2oc(N3CC4CCC(C3)N4)nc2c1OC(F)(F)F [Example 198, 2-(3,8-Diazabicyclo[3.2.1]octan-3-yl)-5-(2-methoxypropan-2-yl)-7-(thiazol-2-yl)-4-(trifluoromethoxy)benzo[d]oxazole] | < 100 |
| OC(c1cc(-c2nccs2)c2oc(N3CC4CCC(C3)N4)nc2c1)C(F)(F)F (centres unmarked) [Example 139, 1-(2-(3,8-Diazabicyclo[3.2.1]octan-3-yl)-7-(thiazol-2-yl)benzo[d]oxazol-5-yl)-2,2,2-trifluoroethan-1-ol] | < 100 |
| COc1cc(-c2nccs2)c2oc(N3CC4CCC(C3)N4)nc2c1 [Example 60, 2-(3,8-Diazabicyclo[3.2.1]octan-3-yl)-5-methoxy-7-(thiazol-2-yl)benzo[d]oxazole] | < 100 |
| OC(c1cc(-c2nccs2)c2oc(N3CC4CCC(C3)N4)nc2c1OC(F)(F)F)C(F)F (centres unmarked) [Example 275, 1-(2-(3,8-Diazabicyclo[3.2.1]octan-3-yl)-7-(thiazol-2-yl)-4-(trifluoromethoxy)benzo[d]oxazol-5-yl)-2,2-difluoroethan-1-ol] | < 100 |
| N#CCOC(c1ccc(-c2nccs2)c2oc(N3CC4CC(C3)N4)nc12)C(F)(F)F (centres unmarked) [Example 226, 2-(1-(2-(3,6-Diazabicyclo[3.1.1]heptan-3-yl)-7-(thiazol-2-yl)benzo[d]oxazol-4-yl)-2,2,2-trifluoroethoxy)acetonitrile] | < 100 |
| COC1(COC(c2ccc(-c3nccs3)c3oc(N4CC5CC(C4)N5)nc23)C(F)(F)F)CC1 (centres unmarked) [Example 282, 2-(3,6-Diazabicyclo[3.1.1]heptan-3-yl)-7-(thiazol-2-yl)-4-(2,2,2-trifluoro-1-((1-methoxycyclopropyl)methoxy)ethyl)benzo[d]oxazole] | < 100 |
| CC(O)(c1cc(-c2nccs2)c2oc(N3CC4CC(C3)N4)nc2c1)C(F)(F)F (centres unmarked) [Example 160, 2-(2-(3,6-Diazabicyclo[3.1.1]heptan-3-yl)-7-(thiazol-2-yl)benzo[d]oxazol-5-yl)-1,1,1-trifluoropropan-2-ol] | < 100 |
| COC(c1ccc(-c2nccs2)c2oc(N3CC4CCC(C3)N4)nc12)C(F)(F)F (centres unmarked) [Example 222, 2-(3,8-Diazabicyclo[3.2.1]octan-3-yl)-7-(thiazol-2-yl)-4-(2,2,2-trifluoro-1-methoxyethyl)benzo[d]oxazole] | < 100 |

Same assay, conditions: scintillation proximity assay; class symbols; read-out: PDE4 Inhibitory Activity

| Compound | IC50 [nM] |
| --- | --- |
| O=C(O)c1ccc(-c2nccs2)c2oc(N3CC4CC(C3)N4)nc12 [Example 366, 2-(3,6-diazabicyclo [3.1.1]heptan-3-yl)-7-(thiazol-2-yl)benzo[d] oxazole-4-carboxylic acid] | 100 to 1000 |
